According to PubChem BioAssay AID330 (DTP/NCI, 2004):
Where “and” joins values, the source holds several entries; their conditions need not be identical. Equal entries are not always repeated. Inconclusive results and toxic doses are left out. How the source made its calls: active means survival T/C of 150% or more; inactive means T/C below 125% in these data.

System: P388 leukemia ip, CD2F1 mice, survival T/C
Assay: NCI In Vivo Anticancer Drug Screen. Data for tumor model P388 Leukemia (intraperitoneal) in CD2F1 (CDF1) mice
Details: endpoint: median survival time, higher = longer survival
Procedure, shortened: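 Mice carrying the transplanted tumor received test compound or vehicle. Survival was recorded in each group, and the value is the treated-group measurement divided by that of the vehicle-treated control group.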

[1] = dose: 50.0 mg/kg/injection, schedule: Q01DX005 (ip), vehicle: Klucel (hydroxypropylcellulose) (HPC)
[2] = dose: 100.0 mg/kg/injection, schedule: Q01DX005 (ip), vehicle: Klucel (hydroxypropylcellulose) (HPC)
[3] = dose: 200.0 mg/kg/injection, schedule: Q01DX005 (ip), vehicle: Klucel (hydroxypropylcellulose) (HPC)
[4] = dose: 60.0 mg/kg/injection, schedule: Q01DX005 (ip), vehicle: saline with Tween-80
[5] = dose: 120.0 mg/kg/injection, schedule: Q01DX005 (ip), vehicle: saline with Tween-80
[6] = dose: 240.0 mg/kg/injection, schedule: Q01DX005 (ip), vehicle: saline with Tween-80
[7] = dose: 100.0 mg/kg/injection, schedule: Q04DX003 (ip), vehicle: Klucel (hydroxypropylcellulose) (HPC)
[8] = dose: 200.0 mg/kg/injection, schedule: Q04DX003 (ip), vehicle: Klucel (hydroxypropylcellulose) (HPC)
[9] = dose: 100.0 mg/kg/injection, schedule: Q04DX003 (ip), vehicle: saline
[10] = dose: 200.0 mg/kg/injection, schedule: Q04DX003 (ip), vehicle: saline
[11] = dose: 100.0 mg/kg/injection, schedule: Q01DX009 (ip), vehicle: saline with Tween-80
[12] = dose: 200.0 mg/kg/injection, schedule: Q01DX009 (ip), vehicle: saline with Tween-80

Measured: T/C

CCCOc1cccc2c1C(=O)c1c(O)c3c(c(O)c1C2=O)C[C@@](O)(C(C)=O)C[C@@H]3OC1CC(N)C(O)C(C)O1 (some centres not stated)
inactive: dose: 3.13 mg/kg/injection, schedule: Q04DX003 (ip), vehicle: water 105 % of control | dose: 6.25 mg/kg/injection, schedule: Q04DX003 (ip), vehicle: water 121 % of control | dose: 12.5 mg/kg/injection, schedule: Q04DX003 (ip), vehicle: water 121 % of control

O=c1c2ccccc2c(=O)n2n1C1C=CC2C1
inactive: [1] 107 % of control | [2] 105 % of control | [3] 100 % of control

Oc1c(Cl)cc(Cl)cc1C=NCCSc1ccc(Cl)cc1
inactive: [1] 99 % of control and 108 % of control and 111 % of control | dose: 100.0 mg/kg/injection, schedule: Q01DX005 (ip), vehicle: DMSO 115 % of control | [2] 105 % of control and 115 % of control and 93 % of control | dose: 200.0 mg/kg/injection, schedule: Q01DX005 (ip), vehicle: DMSO 117 % of control | dose: 400.0 mg/kg/injection, schedule: Q01DX005 (ip), vehicle: DMSO 118 % of control | dose: 400.0 mg/kg/injection, schedule: Q01DX005 (ip), vehicle: Klucel (hydroxypropylcellulose) (HPC) 101 % of control and 120 % of control | dose: 600.0 mg/kg/injection, schedule: Q01DX005 (ip), vehicle: DMSO 108 % of control

O=C(O)C1Cc2c([nH]c3ccccc23)C(CCCCO)N1 (configuration not stated)
inactive: dose: 6.25 mg/kg/injection, schedule: Q01DX009 (ip), vehicle: Klucel (hydroxypropylcellulose) (HPC) 101 % of control | dose: 12.5 mg/kg/injection, schedule: Q01DX009 (ip), vehicle: Klucel (hydroxypropylcellulose) (HPC) 99 % of control

Cc1nn(C(=O)c2cccnc2)c(-c2ccccc2)c1N=Nc1ccc(S(=O)(=O)N=C(N)N)cc1
inactive: dose: 3.12 mg/kg/injection, schedule: Q01DX005 (ip), vehicle: saline with Tween-80 98 % of control | dose: 6.25 mg/kg/injection, schedule: Q01DX005 (ip), vehicle: saline with Tween-80 95 % of control | dose: 12.5 mg/kg/injection, schedule: Q01DX005 (ip), vehicle: saline with Tween-80 105 % of control and 86 % of control | dose: 50.0 mg/kg/injection, schedule: Q01DX005 (ip), vehicle: saline with Tween-80 89 % of control

CCN(CC)c1ccc2cc(C(=O)c3cccs3)c(=O)oc2c1
inactive: [4] 104 % of control | [5] 96 % of control | [6] 103 % of control

Cc1ccc(C(=O)NNC(O)C(F)(F)F)cc1 (configuration not stated)
inactive: [7] 97 % of control | [8] 102 % of control

CS(=O)(=O)C(=C1C(=O)NC(=O)NC1=O)S(C)(=O)=O
inactive: dose: 12.5 mg/kg/injection, schedule: Q01DX005 (ip), vehicle: Klucel (hydroxypropylcellulose) (HPC) 98 % of control | dose: 25.0 mg/kg/injection, schedule: Q01DX005 (ip), vehicle: Klucel (hydroxypropylcellulose) (HPC) 100 % of control | [1] 107 % of control and 109 % of control

FC(F)(F)COP1OCCS1 (configuration not stated)
inactive: dose: 12.5 mg/kg/injection, schedule: Q04DX002 (ip), vehicle: saline with Tween-80 99 % of control | dose: 25.0 mg/kg/injection, schedule: Q04DX002 (ip), vehicle: saline with Tween-80 99 % of control | dose: 50.0 mg/kg/injection, schedule: Q04DX002 (ip), vehicle: saline with Tween-80 98 % of control | dose: 100.0 mg/kg/injection, schedule: Q04DX002 (ip), vehicle: saline with Tween-80 100 % of control | dose: 200.0 mg/kg/injection, schedule: Q04DX002 (ip), vehicle: saline with Tween-80 104 % of control

CC(SC(C)(C)C)C(=O)SC(C)(C)C (configuration not stated)
inactive: [7] 102 % of control | [8] 103 % of control | dose: 400.0 mg/kg/injection, schedule: Q04DX003 (ip), vehicle: Klucel (hydroxypropylcellulose) (HPC) 105 % of control

COc1cc(CC(CC(=O)c2ccc3c(c2)OCO3)C(=O)O)cc(OC)c1OC (configuration not stated)
inactive: [1] 94 % of control | [2] 99 % of control | [3] 94 % of control

C=CC(=O)NC(C)(C)C(=O)O
inactive: dose: 50.0 mg/kg/injection, schedule: Q01DX009 (ip), vehicle: saline 99 % of control | dose: 100.0 mg/kg/injection, schedule: Q01DX009 (ip), vehicle: saline 97 % of control | dose: 200.0 mg/kg/injection, schedule: Q01DX009 (ip), vehicle: saline 99 % of control

CC#Cc1ccc(-c2ccccc2)s1
inactive: dose: 1.0 mg/kg/injection, schedule: Q01DX005 (ip), vehicle: Klucel + Tween-80 96 % of control | dose: 2.0 mg/kg/injection, schedule: Q01DX005 (ip), vehicle: Klucel + Tween-80 98 % of control | dose: 4.0 mg/kg/injection, schedule: Q01DX005 (ip), vehicle: Klucel + Tween-80 94 % of control | dose: 8.0 mg/kg/injection, schedule: Q01DX005 (ip), vehicle: Klucel + Tween-80 93 % of control

C[Si](C)(C)c1ccccn1
inactive: [4] 108 % of control | [5] 103 % of control | [6] 113 % of control

NNc1nnnc2c1sc1ccccc12
inactive: dose: 100.0 mg/kg/injection, schedule: Q01DX001 (ip), vehicle: saline with Tween-80 89 % of control | dose: 400.0 mg/kg/injection, schedule: Q01DX001 (ip), vehicle: saline with Tween-80 93 % of control

CCOc1cc(C)c(C(CC(=O)O)CC(=O)N(CCCl)CCCl)cc1C(C)C (configuration not stated)
inactive: [9] 107 % of control | [10] 100 % of control | dose: 400.0 mg/kg/injection, schedule: Q04DX003 (ip), vehicle: saline 108 % of control

O=C(OCC(O)CO)c1c(Cl)c(Cl)c(Cl)c(Cl)c1-c1c2cc(I)c(=O)c(I)c-2oc2c(I)c(O)c(I)cc12 (configuration not stated)
inactive: dose: 60.0 mg/kg/injection, schedule: Q01DX005 (ip), vehicle: saline 94 % of control | dose: 120.0 mg/kg/injection, schedule: Q01DX005 (ip), vehicle: saline 100 % of control | dose: 240.0 mg/kg/injection, schedule: Q01DX005 (ip), vehicle: saline 102 % of control

COc1cc(/C=N/NC(=O)c2cccs2)cc(OC)c1OC
inactive: [11] 95 % of control | [12] 100 % of control | dose: 400.0 mg/kg/injection, schedule: Q01DX009 (ip), vehicle: saline with Tween-80 100 % of control

O=c1oc2c(O)c(O)cc3c(=O)oc4c(O)c(O)cc1c4c23
inactive: dose: 50.0 mg/kg/injection, schedule: Q01DX009 (ip), vehicle: other 121 % of control | dose: 50.0 mg/kg/injection, schedule: Q04DX003 (ip), vehicle: saline 100 % of control | dose: 100.0 mg/kg/injection, schedule: Q01DX009 (ip), vehicle: other 123 % of control | [9] 103 % of control | dose: 200.0 mg/kg/injection, schedule: Q01DX009 (ip), vehicle: other 117 % of control and 123 % of control | [10] 112 % of control | dose: 400.0 mg/kg/injection, schedule: Q01DX009 (ip), vehicle: other 102 % of control and 108 % of control

CCCCCCCCCCCCCCCCN1CCC2SC3CN(CCCCCCCCCCCCCCCC)CCC3SC2C1 (configuration not stated)
inactive: dose: 50.0 mg/kg/injection, schedule: Q01DX009 (ip), vehicle: saline with Tween-80 99 % of control | [11] 96 % of control | [12] 97 % of control

COc1ccc(CC(CO)NC(=O)c2ccccc2)cc1 (configuration not stated)
inactive: dose: 100.0 mg/kg/injection, schedule: Q04DX002 (ip), vehicle: Klucel (hydroxypropylcellulose) (HPC) 101 % of control | dose: 200.0 mg/kg/injection, schedule: Q04DX002 (ip), vehicle: Klucel (hydroxypropylcellulose) (HPC) 108 % of control | dose: 400.0 mg/kg/injection, schedule: Q04DX002 (ip), vehicle: Klucel (hydroxypropylcellulose) (HPC) 94 % of control
